Measurements as given in patent US20220265629A1, “TREATMENT OF SYSTOLIC DYSFUNCTION AND HEART FAILURE WITH REDUCED EJECTION FRACTION WITH THE COMPOUND (R)-4-(1-((3-(DIFLUOROMETHYL)-1-METHYL-1H-PYRAZOL-4-YL)SULFONYL)-1-FLUOROETHYL)-N-(ISOXAZOL-3-YL)PIPERIDINE-1-CARBOXAMIDE” (MyoKardia, Inc., priority 2019, published 2022).
Like-named read-outs stand apart in the source and are kept apart here.

Assay: Food effect cross-over study, 200 mg (25 mg tablets), healthy volunteers: plasma pharmacokinetics
Assay type: in vivo, human
Settings: for Plasma concentration, Geometric Mean / Plasma concentration, Mean / Plasma concentration, Median: Predose; for concentration at 1 h / concentration at 2 h / concentration at 3 h / concentration at 4 h / concentration at 5 h / concentration at 6 h / concentration at 9 h / concentration at 12 h / concentration at 18 h / concentration at 24 h / concentration at 36 h: human, plasma, oral; for concentration at 1 h: 1 hour postdose; for concentration at 2 h: 2 hours postdose; for concentration at 3 h: 3 hours postdose; for concentration at 4 h: 4 hours postdose; for concentration at 5 h: 5 hours postdose; for concentration at 6 h: 6 hours postdose; for concentration at 9 h: 9 hours postdose; for concentration at 12 h: 12 hours postdose; for concentration at 18 h: 18 hours postdose; for concentration at 24 h: 24 hours postdose; for concentration at 36 h: 36 hours postdose
Description: This example describes a clinical study for establishing, in healthy volunteers, the effect of a high fat, high caloric meal on the PK profile of Compound I, as compared to administration of the drug in the fasted state. The study also was intended to determine the safety and tolerability after a single oral dose of Compound I in the fed and fasted state in healthy volunteers. The measurements of PK, PD, and other clinical parameters were done as described in Example 1 above.
This study was an open-label, randomized, two-period cross-over study in healthy volunteers aged 18-55 years. Subjects were screened up to 28 days before the first treatment period. Subjects were admitted to the clinical site on Day −1 (the day before dosing) of Period 1. Approximately half of the subjects randomly received a single dose of Compound I on Day 1 of the first treatment period after the ingestion of a high fat, high caloric breakfast, and the remainder were closed in the fasted state. Any subject with a preclose resting HR≥95 beats per minute (bpm) was considered ineligible and was not treated. Any subjects with an acute gastrointestinal disorder which could impact drug/food absorption (e.g., vomiting, diarrhea) were rescheduled. Subjects were confined to the clinic until Day 4, and discharged after the 72-hour postclose PK and laboratory samples and vital signs were obtained. After a washout between dosing from 7 to 10 days (or, after consultation with the Investigator, up to 21 days after initial dosing if the subject was unable to attend within the 7 to 10-day window), the subject was admitted for Period 2. The sequence of fed/fasted versus fasted/fed periods was randomized. Subjects returned after the second treatment period for a safety follow-up visit on Day 7 (±1 day).
In both treatment periods, Compound I was administered with 240 mL of water. In the fasted state, the subjects fasted for 10 hours before and for 4 hours after the administration of Compound I. Water could have been ingested up to 1 hour before and after 1 hour post dosing. In the fed state, the subjects fasted for 10 hours before and for 4 hours after the ingestion of the meal, but could have ingested water up to 1 hour before and 1 hour after dosing. In the fed state, the subjects started ingesting the high fat, high caloric meal within 30 minutes prior to Compound I administration and finished the meal within 30 minutes. The meal contained approximately 800 to 1000 calories with about 50% of the calories from fat. The meal consisted of approximately 150 calories from protein, 250 calories from carbohydrate, and 500-600 calories from fat. An example of the meal was a breakfast consisting of two eggs fried in butter, two strips of bacon, two slices of buttered toast, 4 ounces of hash brown potatoes, and 8 ounces of whole milk.
Each subject received two oral doses of 200 mg of Compound I formulated as 25 mg tablets (8 tablets) in a randomized, cross-over fashion, once in the fasted state and the other time after the ingestion of a high fat, high caloric breakfast. There was a washout of between 7 and 21 days between the administrations of the two closes. The Compound I drug substance was a crystalline, free-base, synthetic molecule with a molecular weight of 435.4.
Plasma drug concentrations were measured as described in Example 1 above. Blood samples to measure Compound I plasma concentration were collected at various time points, including on Day 1 preclose (1 hour prior to dosing) and at 1 (±5 min), 2 (±5 min), 3 (±5 min), 4 (+10 min), 5 (+10 min), 6 (+10 min), 9 (+20 min), 12 (+20 min), 18 (+30 min), 24 (+30 min), 36 (+30 min), 48 (+30 min), and 72 (+30 min) hours postclose on both treatment periods.
To assess the effect of food on the PK of Compound I, the two one-sided t-test procedure was used to construct 90% CI around the geometric mean ratios (fed/fasted) of plasma AUCinf, AUClast, and Cmax. […]

[1] = Fasted, read-out: Plasma concentration, Geometric Mean
[2] = Fasted, read-out: Plasma concentration, Mean
[3] = Fasted, read-out: Plasma concentration, Median
[4] = Fed, read-out: Plasma concentration, Geometric Mean
[5] = Fed, read-out: Plasma concentration, Mean
[6] = Fed, read-out: Plasma concentration, Median

For Cn1cc(S(=O)(=O)[C@@](C)(F)C2CCN(C(=O)Nc3ccon3)CC2)c(C(F)F)n1 [Compound I, (R)-4-(1-((3-(difluoromethyl)-1-methyl-1H-pyrazol-4-yl)sulfonyl)-1-fluoroethyl)-N-(isoxazol-3-yl)piperidine-1-carboxamide], the “exposure (Cmax) higher in the fed state versus the fasted state” value was roughly 60%, the “AUCinf, Geometric Mean Ratio - Fed/Fasted” value (N = 11) was 154.28 % of Reference and the “AUClast, Geometric Mean Ratio - Fed/Fasted” value (N = 11) was 154.02 % of Reference. The “Cmax, Geometric Mean Ratio - Fed/Fasted” value (N = 11) was 158.11 % of Reference, the “Plasma concentration, Geometric Mean” value (Fasted) was 0 µg/mL and the “Plasma concentration, Mean” value (Fasted) was 0.000 ng/mL. For the same compound, the “Plasma concentration, Median” value (Fasted) was 0 µg/mL, the “Plasma concentration, Geometric Mean” value (Fed) was 0 µg/mL and the “Plasma concentration, Mean” value (Fed) was 0.092 ng/mL. For the same compound, the “Plasma concentration, Median” value (Fed) was 0 µg/mL, the “Tmax, Median (range)” value (fasted state) was 5 h and the “Tmax, Median (range)” value (fed state) was 5.5 h. It also gave a concentration at 1 h [1] of 1180 ng/mL, a concentration at 1 h [2] of 1360 ng/mL and a concentration at 1 h [3] of 1600 ng/mL. For the same compound, the concentration at 1 h [4] was 916 ng/mL, the concentration at 1 h [5] was 1320 ng/mL and the concentration at 1 h [6] was 828 ng/mL. The concentration at 2 h [1] was 1780 ng/mL, the concentration at 2 h [2] was 1830 ng/mL and the concentration at 2 h [3] was 1820 ng/mL. For the same compound, the concentration at 2 h [4] was 1470 ng/mL, the concentration at 2 h [5] was 1920 ng/mL and the concentration at 2 h [6] was 1160 ng/mL. The concentration at 3 h [1] was 2090 ng/mL, the concentration at 3 h [2] was 2120 ng/mL and the concentration at 3 h [3] was 2180 ng/mL. It also gave a concentration at 3 h [4] of 2000 ng/mL, a concentration at 3 h [5] of 2340 ng/mL and a concentration at 3 h [6] of 2340 ng/mL. It also gave a concentration at 4 h [1] of 2190 ng/mL, a concentration at 4 h [2] of 2220 ng/mL and a concentration at 4 h [3] of 2280 ng/mL. For the same compound, the concentration at 4 h [4] was 2610 ng/mL, the concentration at 4 h [5] was 2810 ng/mL and the concentration at 4 h [6] was 3030 ng/mL. The concentration at 5 h [1] was 2270 ng/mL, the concentration at 5 h [2] was 2310 ng/mL and the concentration at 5 h [3] was 2400 ng/mL. For the same compound, the concentration at 5 h [4] was 3040 ng/mL, the concentration at 5 h [5] was 3150 ng/mL and the concentration at 5 h [6] was 3340 ng/mL. The concentration at 6 h [1] was 2170 ng/mL, the concentration at 6 h [2] was 2220 ng/mL and the concentration at 6 h [3] was 2320 ng/mL. The concentration at 6 h [4] was 3140 ng/mL, the concentration at 6 h [5] was 3200 ng/mL and the concentration at 6 h [6] was 3320 ng/mL. It also gave a concentration at 9 h [1] of 1970 ng/mL, a concentration at 9 h [2] of 2000 ng/mL and a concentration at 9 h [3] of 2040 ng/mL. It also gave a concentration at 9 h [4] of 3050 ng/mL, a concentration at 9 h [5] of 3080 ng/mL and a concentration at 9 h [6] of 3220 ng/mL. The concentration at 12 h [1] was 1720 ng/mL, the concentration at 12 h [2] was 1740 ng/mL and the concentration at 12 h [3] was 1800 ng/mL. It also gave a concentration at 12 h [4] of 2780 ng/mL, a concentration at 12 h [5] of 2840 ng/mL and a concentration at 12 h [6] of 2720 ng/mL. For the same compound, the concentration at 18 h [1] was 1290 ng/mL, the concentration at 18 h [2] was 1320 ng/mL and the concentration at 18 h [3] was 1360 ng/mL. It also gave a concentration at 18 h [4] of 2030 ng/mL, a concentration at 18 h [5] of 2080 ng/mL and a concentration at 18 h [6] of 2060 ng/mL. It also gave a concentration at 24 h [1] of 1070 ng/mL, a concentration at 24 h [2] of 1100 ng/mL and a concentration at 24 h [3] of 1170 ng/mL. It also gave a concentration at 24 h [4] of 1660 ng/mL, a concentration at 24 h [5] of 1720 ng/mL and a concentration at 24 h [6] of 1670 ng/mL. It also gave a concentration at 36 h [1] of 546 ng/mL, a concentration at 36 h [2] of 578 ng/mL and a concentration at 36 h [3] of 596 ng/mL.
